In PMC8298375 (Naunyn-Schmiedeberg's Archives of Pharmacology, 2021):
Where two headings read alike, the source gives them in different places.

How the values were obtained:
[1] = test system: AChE; type: in vivo, rat; conditions: scopolamine model; for % AChE Inhibition: plasma
Method: Samples were then centrifuged at 10,000 rpm for 5 min, and plasma was stored at − 70 °C until analysis.
Thiocholine, which was produced due to the hydrolysis of acetylthiocholine (ACTI) by AChE, was estimated by making it react with 5, 5′-dithiobis-(2-nitrobenzoic acid) (DTNB). The chemical, 5-thio-2-nitrobenzoic acid (yellow color complex), which was released due to reaction was estimated using a UV spectrophotometer in the range of 400 to 420 nm with maximal absorption at 412 nm. One hundred microliter of blank rat plasma was taken in the polypropylene vials. To this, 2.8 mL of phosphate buffer (0.01 M, pH 8) and 100 µL of DTNB reagents were added and mixed well. Then, 20 µL of ACTI (26.01 mg/mL of Milli-Q water) was added to the contents of the cuvette to initiate the enzyme reaction. The reaction kinetics was monitored at different time intervals (0, 1, 2, 3, 4 min), and absorbance was noted. 2.8 mL buffer (0.01 M, pH 8.0) and 100 µL DTNB reagent served as blank. Concentrations in the range of 0.03–30 mM were prepared using methanol as a diluent. […] Substrate concentration and reaction time were optimized such that sufficient concentration of ACTI is available to bind with the enzyme to initiate the reaction and also it should not saturate the enzyme. In this study, varying concentrations (100–1000 µM) of ACTI were prepared, and reaction kinetics were observed. In general, the maximum time should be either 2–4 min or even less, because the enzyme might undergo degradation. In the present study, up to 4 min of reaction kinetics (changing the optical density or absorbance) was measured. One unit of AChE activity is defined as the number of µmol of acetylthiocholine iodide hydrolyzed per minute. The specific activity of AChE is expressed in moles/min/mg of protein (Kaur et al. [2015]): AChEActivity=(abs.permin×1000×volumeofenzyme)/(13600×TRM)AChEActivity=abovevalue×1000(nanomolar/min/mL)
where 13,600 = molar extinction coefficient of DTNB: 1000-molar conversion factor: (TRM) total reaction mixture 3 mL: volume of enzyme (0.1 mL).

[2] = test system: ICV colchicine-induced dementia rats; assay: Passive avoidance test, ICV colchicine-induced dementia (chronic model); type: in vivo, Wistar rats; conditions: for Retention test, Latency time, 1st / Retention test, No. of crossings, 1st / Retention test, Time spent in darker chamber, 1st: 1st retention test, before colchicine administration; for Retention test, Latency time, 2nd / Retention test, No. of crossings, 2nd / Retention test, Time spent in darker chamber, 2nd: 2nd retention test, day 17; for Retention test, No. of crossings, 3rd / Retention test, Latency time, 3rd / Retention test, Time spent in darker chamber, 3rd: 3rd retention test, day 23; for Acquisition test, 2nd day: colchicine model
Method: (§1) In the chronic model, the rats were trained for MWM and PAT tasks for the first 4 days followed by intracerebroventricular (i.c.v.) administration of colchicine on day 6. After establishing dementia on day 10 of the colchicine administration, the drug treatment was initiated from day 11 to 24. The effects of different drug treatments on dementia were assessed on days 14 and 21. On these particular days, the swim test was performed 15 min after the administration of different treatments and escape latencies; residence time and peripheral swim time were recorded (Nampoothiri [2017]). The retention trials for PAT on day 17 and 23 were performed on days 17 and 23, 15 min after the administration of the drug.
On the 6th day, surgery was performed as described (Bokare et al. [2018]). Rat was anesthetized with sodium pentobarbital (45 mg/kg, i.p.) and positioned in stereotaxic apparatus. The head was positioned in a frame, and a midline sagittal incision was made in the scalp. Two holes were drilled through the skull at coordinates (0.8 mm posterior to bregma, 1.8 mm lateral to the sagittal suture, and 3.6 mm beneath the cortical surface) to place the injection cannula. Rats were intracerebroventricularly infused with either artificial cerebrospinal fluid (ACSF; in mM: 147 NaCl, 2.9 KCl, 1.6 MgCl2, 1.7 CaCl2, and 2.2 dextrose) or 15 µg of colchicine in 5 µL ACSF using a Hamilton microsyringe positioned in the injection cannula. To promote back diffusion, the microsyringe was left in place for 2 min following injection. The scalp was then closed with a suture. After surgery, all animals received gentamicin (5 mg/kg, i.p.) to prevent sepsis. Special care was taken during the postoperative period to provide food and water inside the cage of the rat. In sham-operated rats, surgery was identical except for injection of the solution.
The passive avoidance apparatus consists of a larger illuminated compartment and a smaller dark compartment. Each consists of a square box, with a floor grid of 50 × 50 cm and wooden walls of 35-cm height in larger compartment. Larger box was illuminated by 15 W Philips CFL lamp. A smaller dark compartment of 15 × 15 cm with an electrified floor is connected to a constant current stimulator. An opening 6 × 6 cm in between the two compartments was closed using a transparent plexiglass sliding door. The test procedure was carried out in three phases, exploration, learning, and retention (Praveenkumar [2019]).
First day, the animal was placed in the center of the illuminated larger compartment facing away from the entrance to the small darker compartment and allowed to explore the apparatus, i.e., both compartments for 3 min. Total time spent in the larger and smaller compartments and the number of crossings (from larger to smaller compartments and vice versa; a measure of exploratory behavior) were noted. On the second day, animal was placed in the illuminated larger compartment facing away from the entrance to the darker compartment. Once the animal entered the darker compartment, the entrance to the larger compartment was closed, and three strong electric foot shocks (50 Hz, 0.5 mA, 2 s) with 10-s intervals were applied. On the third day, rats were placed in the illuminated larger compartment and allowed to explore both the compartments for 3 min. The parameters assessed are latency time to enter into darker compartment, time spent in the darker and brighter compartments, and the number of crossings between the compartments.

[3] = test system: ICV colchicine-induced dementia rats; assay: Locomotor activity (photoactometer), colchicine-induced dementia; type: in vivo, Wistar rats; conditions: colchicine model, Mean ± SEM, photo beam counts for 5 min
Method: as §1
On the 6th day, surgery was performed as described (Bokare et al. [2018]). Rat was anesthetized with sodium pentobarbital (45 mg/kg, i.p.) and positioned in stereotaxic apparatus. The head was positioned in a frame, and a midline sagittal incision was made in the scalp. […]
Locomotor activity was assessed in animals using a digital photoactometer (INCO, India) which contains a cage that is 30-cm long and 30-cm deep with a wire mesh at the bottom. […] Then, the ambulatory movements were recorded for 5 min and expressed in terms of total photo beam counts for 5 min per animal.

CCN(C)C(=O)Oc1cccc([C@H](C)N(C)C)c1 [INRSM, rivastigmine] was tested, and the “peak AChE inhibition (Emax, maximum inhibition) in plasma” value [1] was 71.95%, the “time of peak AChE inhibition in plasma” value [1] was 10 min and the “% AChE Inhibition” value ([1]; 0 min, listed as SCP + INRSM) was 0.00 ± 0.0294%. The “% AChE Inhibition” value ([1]; 5 min, listed as SCP + INRSM) was 64.46 ± 0.1016%, the “% AChE Inhibition” value ([1]; 10 min, listed as SCP + INRSM) was 71.95 ± 0.0398% and the “% AChE Inhibition” value ([1]; 15 min, listed as SCP + INRSM) was 71.82 ± 0.0577 a,b,c %. The “% AChE Inhibition” value ([1]; 20 min, listed as SCP + INRSM) was 62.84 ± 0.0565%, the “% AChE Inhibition” value ([1]; 30 min, listed as SCP + INRSM) was 63.67 ± 0.0441% and the “% AChE Inhibition” value ([1]; 45 min, listed as SCP + INRSM) was 59.44 ± 0.0384%. The “% AChE Inhibition” value ([1]; 60 min, listed as SCP + INRSM) was 57.57 ± 0.0314%, the “% AChE Inhibition” value ([1]; 90 min, listed as SCP + INRSM) was 56.2 ± 0.317% and the “% AChE Inhibition” value ([1]; 120 min, listed as SCP + INRSM) was 51.35 ± 0.0329%. For the same compound, the “% AChE Inhibition” value ([1]; 180 min, listed as SCP + INRSM) was 49.26 ± 0.0264%, the “Retention test, Latency time, 1st” value ([2]; listed as COL + INRSM) was 122.3 ± 13.32 s and the “Retention test, No. of crossings, 1st” value ([2]; listed as COL + INRSM) was 2.67±0.56. For the same compound, the “Retention test, Time spent in darker chamber, 1st” value ([2]; listed as COL + INRSM) was 49.5 ± 12.13 s, the “Retention test, Latency time, 2nd” value ([2]; listed as COL + INRSM) was 101.8 ± 10.46 s and the “Retention test, No. of crossings, 2nd” value ([2]; listed as COL + INRSM) was 3.50±0.56. The “Retention test, Time spent in darker chamber, 2nd” value ([2]; listed as COL + INRSM) was 58.67 ± 10.25 s, the “Retention test, No. of crossings, 3rd” value [2] was 3.17±0.48 and the “Retention test, Latency time, 3rd” value ([2]; listed as COL + INRSM) was 77.17 ± 11.18 s. The “Retention test, Time spent in darker chamber, 3rd” value ([2]; listed as COL + INRSM) was 67.17 ± 12.43 s, the “Acquisition test, 2nd day” value ([2]; listed as COL + INRSM) was 11.07 ± 2.195 and the Score on actophotometer ([3]; listed as COL + INRSM) was 265.66 ± 17.95.

For CCN(C)C(=O)Oc1cccc([C@H](C)N(C)C)c1 [ORSM, rivastigmine], the “peak AChE inhibition (Emax, maximum inhibition) in plasma” value [1] was 71.11%, the “time of peak AChE inhibition in plasma” value [1] was 60 min and the “% AChE Inhibition” value ([1]; 0 min, listed as SCP + ORSM) was 0.00 ± 0.0543%. The “% AChE Inhibition” value ([1]; 5 min, listed as SCP + ORSM) was 26.67 ± 0.1358%, the “% AChE Inhibition” value ([1]; 10 min, listed as SCP + ORSM) was 49.99 ± 0.1026% and the “% AChE Inhibition” value ([1]; 15 min, listed as SCP + ORSM) was 62.03 ± 0.0877 a,b %. For the same compound, the “% AChE Inhibition” value ([1]; 20 min, listed as SCP + ORSM) was 66.09 ± 0.0921%, the “% AChE Inhibition” value ([1]; 30 min, listed as SCP + ORSM) was 64.89 ± 0.0895% and the “% AChE Inhibition” value ([1]; 45 min, listed as SCP + ORSM) was 70.42 ± 0.0577%. The “% AChE Inhibition” value ([1]; 60 min, listed as SCP + ORSM) was 71.11 ± 0.0438%, the “% AChE Inhibition” value ([1]; 90 min, listed as SCP + ORSM) was 68.18 ± 0.0298% and the “% AChE Inhibition” value ([1]; 120 min, listed as SCP + ORSM) was 64.36 ± 0.0262%. The “% AChE Inhibition” value ([1]; 180 min, listed as SCP + ORSM) was 48.89 ± 0.0378%, the “% AChE Inhibition” value ([1]; 240 min) was 37.05 ± 0.0184% and the “Retention test, Latency time, 1st” value ([2]; listed as COL + ORSM) was 127.8 ± 21.13 s. The “Retention test, No. of crossings, 1st” value ([2]; listed as COL + ORSM) was 1.83±0.54, the “Retention test, Time spent in darker chamber, 1st” value ([2]; listed as COL + ORSM) was 38.5 ± 16.47 s and the “Retention test, Latency time, 2nd” value ([2]; listed as COL + ORSM) was 90.55 ± 22.83 s. The “Retention test, No. of crossings, 2nd” value ([2]; listed as COL + ORSM) was 3.00±0.63, the “Retention test, Time spent in darker chamber, 2nd” value ([2]; listed as COL + ORSM) was 68 ± 23.51 s and the “Retention test, No. of crossings, 3rd” value [2] was 3.17±0.48. The “Retention test, Latency time, 3rd” value ([2]; listed as COL + ORSM) was 48.83 ± 8.28 s, the “Retention test, Time spent in darker chamber, 3rd” value ([2]; listed as COL + ORSM) was 81.33 ± 10.56 s and the “Acquisition test, 2nd day” value ([2]; listed as COL + ORSM) was 8.91 ± 2.049. The Score on actophotometer ([3]; listed as COL + ORSM) was 240.00 ± 19.54.
